Results published in US8748426B2, “Inhibitors of diacylglycerol acyl transferase” (Piramal Enterprises Limited, priority 2009, dated 2014).

Target: T1, hDGAT1 (Homo sapiens, UniProt O75907)
T1 sequence (O75907 1-488): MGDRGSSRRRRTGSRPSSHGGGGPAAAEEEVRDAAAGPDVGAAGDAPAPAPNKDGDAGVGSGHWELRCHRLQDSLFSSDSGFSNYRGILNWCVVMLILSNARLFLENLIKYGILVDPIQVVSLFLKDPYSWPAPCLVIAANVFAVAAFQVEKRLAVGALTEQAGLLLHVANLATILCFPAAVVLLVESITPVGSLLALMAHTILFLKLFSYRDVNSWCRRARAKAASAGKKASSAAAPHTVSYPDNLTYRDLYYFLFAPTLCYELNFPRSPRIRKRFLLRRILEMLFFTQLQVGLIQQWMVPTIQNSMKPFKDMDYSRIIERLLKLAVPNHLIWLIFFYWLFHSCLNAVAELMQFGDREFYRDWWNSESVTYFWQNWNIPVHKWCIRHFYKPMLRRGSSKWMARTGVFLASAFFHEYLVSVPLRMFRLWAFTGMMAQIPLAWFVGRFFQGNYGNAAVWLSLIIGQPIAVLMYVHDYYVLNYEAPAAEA
Assay: In-vitro DGAT1 assay (14C oleoyl CoA, hDGAT1 microsomes from Sf9 cells)
Settings: at 1 μM

In the case of `O=C(Nc1ccc(-c2ccc3c(c2)C(=O)N([C@H]2CC[C@H](C(=O)O)CC2)C3)cc1)c1ccc(Cl)cc1` [Example 561, (1r,4r)-4-(6-(4-(4-Chlorobenzamido)phenyl)-1-oxoisoindolin-2-yl)cyclohexane carboxylic acid], the “% Inhibition of hDGAT1” value was “+ (10-50% Inhibition)”.
With `CC(C)(C(=O)O)N1Cc2ccc(-c3ccc(NC(=O)c4ccc(-c5ccccc5)cc4)cc3)cc2C1=O` [Example 517, 2-(6-(4-([1,1′-Biphenyl]-4-ylcarboxamido)phenyl)-1-oxoisoindolin-2-yl)-2-methyl propanoic acid] the “% Inhibition of hDGAT1” value was “++ (>50% Inhibition)”.
`CC(C)[C@@H](C(=O)O)N1Cc2ccc(-c3ccc(NC(=O)c4ccc(-c5ccccc5)cc4)cc3Cl)cc2C1=O` [Example 482, (S)-2-(6-(4-Biphenyl-4-ylcarboxamido-2-chlorophenyl)-1-oxoisoindolin-2-yl)-3-methylbutanoic acid] was tested, and the “% Inhibition of hDGAT1” value was “++ (>50% Inhibition)”.

Same assay, conditions: read-out: % Inhibition of hDGAT1

`COc1ccc(C(=O)Nc2ccc(-c3ccc4c(c3)C(=O)N([C@H](C(=O)O)C(C)C)C4)cc2)c(OC)c1` [Example 156, (S)-2-(6-(4-(2,4-Dimethoxybenzamido)phenyl)-1-oxoisoindolin-2-yl)-3-methyl butanoic acid] and `CC(C)[C@@H](C(=O)O)N1Cc2ccc(-c3ccc(NC(=O)c4ccc(F)c(F)c4)cc3)cc2C1=O` [Example 140, (S)-2-(6-(4-(3,4-Difluorobenzamido)phenyl)-1-oxoisoindolin-2-yl)-3-methyl butanoic acid] cannot be ordered by inhibition at 1 µM: > 50% for the first, > 50% for the second.

Compared with `CC(C)[C@@H](C(=O)O)N1Cc2ccc(-c3ccc(NC(=O)c4ccc(C(F)(F)F)cc4)cc3)cc2C1=O` [Example 102, (S)-3-Methyl-2-(1-oxo-6-(4-(4-(trifluoromethyl)benzamido)phenyl)isoindolin-2-yl)butanoic acid], `CC(C)[C@@H](C(=O)O)N1Cc2ccc(-c3ccc(NC(=O)c4cccc(C(F)(F)F)c4F)cc3)cc2C1=O` [Example 194, (S)-2-(6-(4-(2-Fluoro-3-(trifluoromethyl)benzamido)phenyl)-1-oxoisoindolin-2-yl)-3-methylbutanoic acid] is lower in inhibition at 1 µM: > 50% for the first, 10 to 50% for the second.

`O=C(Nc1ccc(-c2ccc3c(c2)C(=O)N([C@@H]2CCC[C@@H]2C(=O)O)C3)cc1)c1ccc(Cl)cc1` [Example 596, (1S,2R)-2-(6-(4-(4-Chlorobenzamido)phenyl)-1-oxoisoindolin-2-yl)cyclopentane carboxylic acid] and `O=C(Nc1ccc(-c2ccc3c(c2)C(=O)N(C2(C(=O)O)CCC2)C3)cc1)c1ccc(C(F)(F)F)cc1` [Example 580, 1-(1-Oxo-6-(4-(4-(trifluoromethyl)benzamido)phenyl)isoindolin-2-yl)cyclo butane carboxylic acid] cannot be ordered by inhibition at 1 µM: > 50% for the first, > 50% for the second.

`CCCCCCc1ccc(C(=O)Nc2ccc(-c3ccc4c(c3)C(=O)N([C@H](C(=O)O)C(C)C)C4)cc2)cc1` [Example 182, (S)-2-(6-(4-(4-Hexylbenzamido)phenyl)-1-oxoisoindolin-2-yl)-3-methylbutanoic acid] and `CCCCCc1ccc(C(=O)Nc2ccc(-c3ccc4c(c3)C(=O)N([C@H](C(=O)O)C(C)C)C4)cc2F)cc1` [Example 446, (S)-2-(6-(3-Fluoro-4-(4-pentylbenzamido)phenyl)-1-oxoisoindolin-2-yl)-3-methylbutanoic acid] cannot be ordered by inhibition at 1 µM: > 50% for the first, > 50% for the second.

`CCCCOc1ccc(C(=O)Nc2ccc(-c3ccc4c(c3)C(=O)N([C@H](C(=O)O)C(C)C)C4)cc2F)cc1` [Example 452, (S)-2-(6-(4-(4-Butoxybenzamido)-3-fluorophenyl)-1-oxoisoindolin-2-yl)-3-methyl butanoic acid] and `CC(C)[C@@H](C(=O)O)N1Cc2ccc(-c3ccc(NC(=O)Nc4ccccc4Cl)c(F)c3)cc2C1=O` [Example 442, (S)-2-(6-(4-(3-(2-Chlorophenyl)ureido)-3-fluorophenyl)-1-oxoisoindolin-2-yl)-3-methylbutanoic acid] cannot be ordered by inhibition at 1 µM: > 50% for the first, > 50% for the second.

First: CC(C)[C@@H](C(=O)O)N1Cc2ccc(-c3ccc(NC(=O)Nc4ccc(Cl)cc4Oc4ccccc4)cc3)cc2C1=O [Example 44, (S)-2-(6-(4-(3-(4-Chloro-2-phenoxyphenyl)ureido)phenyl)-1-oxoisoindolin-2-yl)-3-methylbutanoic acid]
Second: CC(C)[C@@H](C(=O)O)N1Cc2ccc(-c3ccc(NC(=O)Nc4ccccc4F)cc3)cc2C1=O [Example 12, (S)-2-(6-(4-(3-(2-Fluorophenyl)ureido)phenyl)-1-oxoisoindolin-2-yl)-3-methyl butanoic acid]
The inhibition at 1 µM of the first is higher: > 50% for the first, 10 to 50% for the second.

`O=C(Nc1ccc(-c2ccc3c(c2)CN([C@@H](Cc2ccccc2)C(=O)O)C3=O)cc1)Nc1cccc(C(F)(F)F)c1` [Example 382, (S)-2-(1-Oxo-5-(4-(3-(3-(trifluoromethyl)phenyl)ureido)phenyl)isoindolin-2-yl)-3-phenylpropanoic acid] and `O=C(O)CCN1Cc2cc(-c3ccc(NC(=O)Nc4cccc(C(F)(F)F)c4)cc3)ccc2C1=O` [Example 379, 3-(1-Oxo-5-(4-(3-(3-(trifluoromethyl)phenyl)ureido)phenyl)isoindolin-2-yl)propanoic acid] fall in the same range of inhibition at 1 µM: 10 to 50% for the first, 10 to 50% for the second.

`CC(C)[C@@H](C(=O)O)N1Cc2cc(-c3ccc(NC(=O)Nc4ccc(F)cc4F)cc3)ccc2C1=O` [Example 237, (S)-2-(5-(4-(3-(2,4-Difluorophenyl)ureido)phenyl)-1-oxoisoindolin-2-yl)-3-methylbutanoic acid] and `CC(C)[C@@H](C(=O)O)N1Cc2ccc(-c3ccc(NC(=O)Nc4cccc(C#N)c4)cc3)cc2C1=O` [Example 42, (S)-2-(6-(4-(3-(3-Cyanophenyl)ureido)phenyl)-1-oxoisoindolin-2-yl)-3-methyl butanoic acid] cannot be ordered by inhibition at 1 µM: > 50% for the first, > 50% for the second.

`CC(C)[C@@H](C(=O)O)N1Cc2ccc(-c3ccc(NC(=O)c4ccc(OC(F)(F)F)cc4)nn3)cc2C1=O` [Example 502, (S)-3-Methyl-2-(1-oxo-6-(6-(4-(trifluoromethoxy)benzamido)pyridazin-3-yl)isoindolin-2-yl)butanoic acid] and `Cc1cc(NC(=O)c2ccc(C(C)(C)C)cc2)ccc1-c1ccc2c(c1)C(=O)N([C@H](C(=O)O)C(C)C)C2` [Example 468, (S)-2-(6-(4-(4-tert-Butylbenzamido)-2-methylphenyl)-1-oxoisoindolin-2-yl)-3-methylbutanoic acid] cannot be ordered by inhibition at 1 µM: > 50% for the first, > 50% for the second.

`O=C(Nc1ccc(-c2ccc3c(c2)C(=O)N(C2(C(=O)O)CC2)C3)cc1)c1ccc(C(F)(F)F)cc1` [Example 590, 1-(1-Oxo-6-(4-(4-(trifluoromethyl)benzamido)phenyl)isoindolin-2-yl)cyclo propane carboxylic acid] and `CC(C)(C)c1ccc(C(=O)Nc2ccc(-c3ccc4c(c3)C(=O)N(C3(C(=O)O)CCCC3)C4)cc2)cc1` [Example 531, 1-(6-(4-(4-(tert-Butyl)benzamido)phenyl)-1-oxoisoindolin-2-yl)cyclopentane carboxylic acid] cannot be ordered by inhibition at 1 µM: > 50% for the first, > 50% for the second.

`CC(C)[C@@H](C(=O)O)N1Cc2ccc(-c3ccc(NC(=O)c4cccc(Cl)c4)cc3)cc2C1=O` [Example 108, (S)-2-(6-(4-(3-Chlorobenzamido)phenyl)-1-oxoisoindolin-2-yl)-3-methylbutanoic acid] and `CC(C)[C@@H](C(=O)O)N1Cc2ccc(-c3ccc(NC(=O)c4ncc(-c5ccccc5)s4)cc3)cc2C1=O` [Example 612, (S)-3-Methyl-2-(1-oxo-6-(4-(5-phenylthiazole-2-carboxamido)phenyl)isoindolin-2-yl)butanoic acid] cannot be ordered by inhibition at 1 µM: > 50% for the first, > 50% for the second.

`CC(C)[C@@H](C(=O)O)N1Cc2ccc(-c3ccc(NC(=O)c4nc(-c5ccccc5)oc4C(F)(F)F)cn3)cc2C1=O` [Example 657, (S)-3-Methyl-2-(1-oxo-6-(5-(2-phenyl-5-(trifluoromethyl)oxazole-4-carboxamido)pyridin-2-yl)isoindolin-2-yl)butanoic acid] and `CC(C)[C@@H](C(=O)O)N1Cc2ccc(-c3ccc(NC(=O)c4ncc(-c5ccccc5)o4)cn3)cc2C1=O` [Example 635, (S)-3-Methyl-2-(1-oxo-6-(5-(5-phenyloxazole-2-carboxamido)pyridin-2-yl)isoindolin-2-yl)butanoic acid] cannot be ordered by inhibition at 1 µM: > 50% for the first, > 50% for the second.

`CC(C)[C@@H](C(=O)O)N1Cc2ccc(-c3ccc(NC(=O)Nc4ccccc4Cl)cc3C(F)(F)F)cc2C1=O` [Example 416, (S)-2-(6-(4-(3-(2-Chlorophenyl)ureido)-2-(trifluoromethyl)phenyl)-1-oxoisoindolin-2-yl)-3-methylbutanoic acid] and `CC(C)[C@@H](C(=O)O)N1Cc2ccc(-c3ccc(NC(=O)Nc4ccc(F)c(F)c4)cc3C(F)(F)F)cc2C1=O` [Example 418, (S)-2-(6-(4-(3-(3,4-Difluorophenyl)ureido)-2-(trifluoromethyl)phenyl)-1-oxoisoindolin-2-yl)-3-methylbutanoic acid] fall in the same range of inhibition at 1 µM: 10 to 50% for the first, 10 to 50% for the second.

`Cc1oc(-c2ccccc2)nc1C(=O)Nc1ccc(-c2ccc3c(c2)C(=O)N(C2CCCC(C(=O)O)C2)C3)cc1` (stereo not drawn) [Example 553, 3-(6-(4-(5-Methyl-2-phenyloxazole-4-carboxamido)phenyl)-1-oxoisoindolin-2-yl)cyclohexanecarboxylic acid] was tested, and the inhibition at 1 µM was > 50%.
